Like-named read-outs stand apart in the source and are kept apart here.
Tests used:
[1] = UDPGA-dependent metabolic stability in human liver microsomes; format: in vitro ADME; conditions: for half-life at 100 µM / CLint scaled at 100 µM: human, pH 7.4, human liver microsomes; for CLint scaled at 100 µM: read-out: CLint, hepatic
Protocol: (§1) Metabolic stability was measured by monitoring the amount of parent compound that remained in an incubation mixture at designated incubation time points. For the phase I metabolism study, SKN (100 μM) was incubated with liver microsomes (1 mg/mL, rat, mouse, and dog; and 0.5 mg/mL, human), and an NADPH-generation cocktail consisting of nicotinamide adenine dinucleotide phosphate (NADP^+, 1 mM), glucose-6-phosphate (5 mM), glucose-6-phosphate dehydrogenase (1 unit/mL), and MgCl2 (10 mM) in potassium phosphate buffer (0.1 M, pH 7.4) in a total volume of 1 mL. To study phase II glucuronide conjugative metabolism, uridine 5′-diphosphoglucuronic acid (UDPGA) (2 mM) was added as a cofactor. The mixture was incubated in a shaking water bath, and the enzyme reaction was initiated by the addition of NADP^+, UDPGA, or both. Aliquots (100 μL) were removed at 0, 5, 15, 30, 45, and 60 min, and the reaction was terminated by adding two volumes of ice-cold methanol. […] The half-life of SKN was obtained by plotting the remaining amount of SKN against time using Prism 3.0 software (GraphPad, La Jolla, CA, USA). Hepatic intrinsic clearance (CLint, hepatic) was calculated using the following formula [20]:CLint, hepatic = (0.693/t1/2) × (g liver weight/kg body weight) × (mL incubation/mg of microsomal protein) × (mg microsomal protein concentration/g of liver)
(§2) The DAD was set at 280 nm.

CYP1A2 = biological target: T1, CYP1A2 (Homo sapiens, UniProt P05177); test: CYP inhibition in human liver microsomes, phenacetin O-deethylation (PCOD); format: in vitro ADME; conditions: pH 7.4, probe phenacetin (O-deethylation, PCOD)
T1 sequence (P05177 1-516): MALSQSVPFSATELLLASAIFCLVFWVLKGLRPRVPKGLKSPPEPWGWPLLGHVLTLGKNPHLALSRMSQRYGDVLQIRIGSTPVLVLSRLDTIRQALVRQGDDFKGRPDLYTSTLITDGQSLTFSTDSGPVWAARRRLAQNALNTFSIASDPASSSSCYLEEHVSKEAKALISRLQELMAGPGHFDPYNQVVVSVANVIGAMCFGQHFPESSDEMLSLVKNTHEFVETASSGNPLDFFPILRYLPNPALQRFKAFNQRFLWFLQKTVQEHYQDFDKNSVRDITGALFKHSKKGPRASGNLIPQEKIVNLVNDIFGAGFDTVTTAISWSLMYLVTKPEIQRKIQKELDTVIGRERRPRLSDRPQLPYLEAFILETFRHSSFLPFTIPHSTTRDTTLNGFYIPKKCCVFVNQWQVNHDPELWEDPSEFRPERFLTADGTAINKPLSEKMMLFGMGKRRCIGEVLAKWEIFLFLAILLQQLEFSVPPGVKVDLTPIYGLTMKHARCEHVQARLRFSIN
Description: as §2

[2] = NADPH-dependent phase I metabolic stability in human liver microsomes; format: in vitro ADME
Protocol: as §1, §2

[3] = test system: CYP isozymes (all isozyme-specific reactions); test: CYP inhibition in human liver microsomes, all isozyme-specific reactions; format: in vitro ADME; conditions: pH 7.4, SKN 10 μM, read-out: inhibitory effect on the formation of any CYP isozyme-specific metabolites
Description: as §2

[4] = NADPH-dependent phase I metabolic stability in mouse liver microsomes; format: in vitro ADME
Protocol: as §1, §2

[5] = UDPGA-dependent metabolic stability in dog liver microsomes; format: in vitro ADME; conditions: for Amount Remaining at 30 min (%): dog liver microsomes; for half-life at 100 µM / CLint scaled at 100 µM: dog, liver microsomes, pH 7.4, dog liver microsomes; for CLint scaled at 100 µM: read-out: CLint, hepatic
Protocol: as §1, §2

[6] = UDPGA-dependent metabolic stability in rat liver microsomes; format: in vitro ADME; conditions: for CLint scaled at 100 µM: read-out: CLint, hepatic; for half-life at 100 µM: rat, pH 7.4, rat liver microsomes
Protocol: as §1, §2

[7] = test system: hPXR-mediated CYP3A4 promoter; test: PXR-mediated CYP3A4 promoter luciferase assay in HepG2 cells; format: cell-based, human; conditions: pcDNA3-PXR-transfected HepG cells, SKN 20 μM, 24 h
Protocol: HepG2 cells (American Tissue Culture Collection, Manassas, VA, USA) were maintained in Dulbecco’s modified Eagle’s essential medium (DMEM), containing 10% fetal bovine serum, 1% nonessential amino acids, 1% GlutaMAX®, and 1% antibiotics/antimycotics at 37 °C in a 5% CO2 atmosphere. The expression plasmid encoding the human constitutive androstane receptor (hCAR; pcDNA3-CAR) and the pGL3-CYP2B6 luciferase construct were kindly provided by Dr. Hongbing Wang (University of Maryland, College Park, MD, USA). The plasmid encoding the human pregnane X receptor (hPXR; pcDNA3-PXR) and the pGL3-CYP3A4 luciferase construct were obtained from Dr. Masahiko Negishi at the National Institutes of Health (Bethesda, MD, USA). Cells were seeded at a density of 1.5 × 10^5 cells/well into a 24-well plate. The next day, the cells were transfected with 0.25 μg of either pcDNA3-CAR or pcDNA3-PXR and 0.25 μg of a promoter luciferase plasmid (either pGL3-CYP2B6 or pGL3-CYP3A4) using Lipofectamine 2000 (Invitrogen, Carlsbad, CA, USA) according to the manufacturer’s instructions. […] The cells were harvested and luciferase activity was measured as described previously.

[8] = UDPGA-dependent metabolic stability in mouse liver microsomes; format: in vitro ADME; conditions: for half-life at 100 µM / CLint scaled at 100 µM: mouse, pH 7.4, mouse liver microsomes; for CLint scaled at 100 µM: read-out: CLint, hepatic
Protocol: as §1, §2

[9] = NADPH-dependent phase I metabolic stability in dog liver microsomes; format: in vitro ADME
Protocol: as §1, §2

[10] = test system: various cancer cell lines; conditions: cited from earlier work

COc1cc(O)c2c(c1)OC(c1ccc(O)cc1)CC2=O (racemic) [SKN, (+/−) 7-O-methylnaringenin]
Amount Remaining at 30 min (%) ([1]; NADPH +): 54.9% | Amount Remaining at 30 min (%) ([1]; NADPH −): 71.3% | half-life at 100 µM ([1]; NADPH +): 25 min | CLint scaled at 100 µM ([1]; NADPH +): 2.99 L/h/kg | half-life at 100 µM ([1]; NADPH −): > 30 min | CLint scaled at 100 µM ([1]; NADPH −): < 2.5 L/h/kg | inhibition at 60 min, 10 µM (CYP1A2; liver microsomes, 200 μM, SKN 10 μM, 15 min pre-incubation, read-out: % Inhibition in Pre-Incubation): 1.5 ± 2.1% | inhibition at 60 min, 10 µM (CYP1A2; liver microsomes, 200 μM, SKN 10 μM, human liver microsomes, read-out: % Inhibition in Co-Incubation): 0.4 ± 0.5% | Amount Remaining at 30 min (%) ([2]; human liver microsomes 0.5 mg/mL, SKN 100 μM): 65.5% | amount of SKN remaining after 60 min of incubation ([2]; human liver microsomes, 60 min): greater than 50% | half-life at 100 µM ([2]; pH 7.4, human liver microsomes): > 60 min | CLint scaled at 100 µM ([2]; pH 7.4, human liver microsomes, read-out: CLint, hepatic): < 1.25 L/h/kg | inhibition at 60 min, 10 µM [3]: ≤ 20% | Amount Remaining at 30 min (%) ([4]; mouse liver microsomes 1 mg/mL, SKN 100 μM): 4.90% | amount of SKN remaining after 60 min of incubation ([4]; mouse liver microsomes, 60 min): 4.9% | half-life at 100 µM ([4]; pH 7.4, mouse liver microsomes): 5.4 min | CLint scaled at 100 µM ([4]; pH 7.4, mouse liver microsomes, read-out: CLint, hepatic): 33.9 L/h/kg | Amount Remaining at 30 min (%) ([5]; NADPH +): 0.0% | Amount Remaining at 30 min (%) ([5]; NADPH −): 42.4% | half-life at 100 µM ([5]; NADPH +): 5.8 min | CLint scaled at 100 µM ([5]; NADPH +): 18 L/h/kg | half-life at 100 µM ([5]; NADPH −): 24.2 min | CLint scaled at 100 µM ([5]; NADPH −): 4.28 L/h/kg | Amount Remaining at 30 min (%) ([6]; NADPH +): 0.0% | Amount Remaining at 30 min (%) ([6]; NADPH −): 17.1% | CLint scaled at 100 µM ([6]; pH 7.4, NADPH +): 33.4 L/h/kg | CLint scaled at 100 µM ([6]; pH 7.4, NADPH −): 17.2 L/h/kg | half-life at 100 µM ([6]; NADPH +): 2.2 min | half-life at 100 µM ([6]; NADPH −): 4.4 min | CYP3A4-luciferase activity increase [7]: 3.8 fold | Amount Remaining at 30 min (%) ([8]; NADPH +): 0.0% | t1/2 ([8]; NADPH +): 0.91 min | Amount Remaining at 30 min (%) ([8]; NADPH −): 1.8% | half-life at 100 µM ([8]; NADPH +): 0.9 min | CLint scaled at 100 µM ([8]; NADPH +): 197 L/h/kg | half-life at 100 µM ([8]; NADPH −): 3.8 min | CLint scaled at 100 µM ([8]; NADPH −): 48.1 L/h/kg | Amount Remaining at 30 min (%) ([9]; dog liver microsomes 1 mg/mL, SKN 100 μM): 18.5% | amount of SKN remaining after 60 min of incubation ([9]; dog liver microsomes, 60 min): 18.5% | half-life at 100 µM ([9]; pH 7.4, dog liver microsomes): 2.7 min | CLint scaled at 100 µM ([9]; pH 7.4, dog liver microsomes, read-out: CLint, hepatic): 38.5 L/h/kg

O=C1C[C@@H](c2ccc(O)c(O)c2)Oc2cc(O)cc(O)c21 [Eriodictyol, 3′-hydroxynaringenin]
anti-proliferative activity compared to naringenin [10]: two-fold higher | inhibition at 60 min, 10 µM (CYP1A2; human liver microsomes, 200 µM, inhibitor 10 M [sic], human liver microsomes 0.5 mg/mL, read-out: Inhibition (%)): 15.9 ± 1.8%

From article PMC6100415, “Hepatic Metabolism of Sakuranetin and Its Modulating Effects on Cytochrome P450s and UDP-Glucuronosyltransferases” (Molecules : A Journal of Synthetic Chemistry and Natural …, 2018)
